Experimental data from ChEMBL document CHEMBL3272223, “Folate analogues altered in the C9-N10 bridge region. 10-Oxafolic acid and 10-oxaaminopterin” (J Med Chem, 1976).
One block for each compound: values may come before it. Active and inactive are the calls of the source. No cut-off for these calls is given here.

Columns and labels:
[1] = target: Dihydrofolate reductase (Lactobacillus casei) (UniProt P00381); experiment: Inhibition of DCM-resistant Lactobacillus casei DHFR at 0.13 mM; conditions: Lacticaseibacillus casei
Enterococcus faecium [2] = experiment: Growth inhibition of Streptococcus faecium ATCC 8043 at 50 ng/ml by turbidimetric method; type: functional; conditions: read-out: GI
[3] = target: Dihydrofolate reductase (Lactobacillus casei) (UniProt P00381); experiment: Activity at DCM-resistant Lactobacillus casei DHFR; conditions: Lacticaseibacillus casei
[4] = target: Dihydrofolate reductase (Lactobacillus casei) (UniProt P00381); experiment: Activity at DCM-resistant Lactobacillus casei DHFR relative to 7,8-dihydrofolic acid; conditions: Lacticaseibacillus casei
Dihydrofolate reductase = Dihydrofolate reductase (Lactobacillus casei, UniProt P00381); experiment: Inhibition of DCM-resistant Lactobacillus casei DHFR; set-up: species or system Lacticaseibacillus casei; conditions: read-out: I50
Enterococcus faecium [5] = experiment: Growth inhibition of Streptococcus faecium ATCC 8043 at 5 ng/ml by turbidimetric method; type: functional; conditions: read-out: GI

Chain of Dihydrofolate reductase (Lactobacillus casei) (P00381 whole entry): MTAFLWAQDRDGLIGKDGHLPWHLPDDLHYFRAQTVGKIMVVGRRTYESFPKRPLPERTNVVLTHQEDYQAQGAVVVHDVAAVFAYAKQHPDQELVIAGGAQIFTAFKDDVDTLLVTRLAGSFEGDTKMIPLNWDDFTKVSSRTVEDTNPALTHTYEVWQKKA
Chain of Dihydrofolate reductase (P00381 whole entry): as above

inhibition [1]: inactive
Structure (SMILES): Nc1nc(=O)c2nc(COc3ccc(C(=O)N[C@@H](CCC(=O)O)C(=O)O)cc3)cnc2[nH]1
inhibition of growth at 0.05 µg/mL (Enterococcus faecium [2]): 50%

Activity [3]: inactive
inhibition [1]: inactive
Structure (SMILES): Nc1nc(=O)c2c([nH]1)NCC(COc1ccc(C(=O)N[C@@H](CCC(=O)O)C(=O)O)cc1)=N2

Activity [4]: 28%
Structure (SMILES): Nc1nc(=O)c2c([nH]1)NCC(CSc1ccc(C(=O)N[C@@H](CCC(=O)O)C(=O)O)cc1)=N2

IC50 (Dihydrofolate reductase): 4.5 nM
Structure (SMILES): Nc1nc(N)c2nc(COc3ccc(C(=O)N[C@@H](CCC(=O)O)C(=O)O)cc3)cnc2n1
inhibition of growth at 0.005 µg/mL (Enterococcus faecium [5]): 50%
